Here are results for 27 compounds from ChEMBL document CHEMBL5352385, “Marine natural products and their synthetic analogs as promising antibiofilm agents for antibiotics discovery and development” (Eur J Med Chem, 2022).

Assay [1] is described as follows: Inhibition of quorum sensing system in Pseudomonas aeruginosa PA01 transfected with lasB-gfp.
A short description of assay [2]: Inhibition of quorum sensing system in Pseudomonas aeruginosa PA01 transfected with […].
The subject of a further assay is Micrococcus luteus. The experiment in a line: Antibiofilm activity against Micrococcus luteus at 31.25 ug/ml incubated for 48 hrs by crystal violet staining based analysis relative to control. The following applies: dose 31.25 µg/ml. Type of assay: functional.
Another assay relates to Marinobacter nauticus. The assay can be described thus: Antibiofilm activity against Marinobacter hydrocarbonoclasticus at 31.25 ug/ml incubated for 24 hrs by crystal violet staining based analysis relative to control. Type of assay: functional. Conditions: dose 31.25 µg/ml.
Assay [3] has as its system Staphylococcus aureus. The assay can be described thus: Antibiofilm activity against methicillin-resistant Staphylococcus aureus CH 10850 at 50 ug/ml relative to control. The following applies: dose 50 µg/ml. Type of assay: functional.
For assay [4], the system named is Pseudooceanicola batsensis. The assay can be described thus: Antibiofilm activity against Pseudooceanicola-batsensis at 31.25 ug/ml incubated for 48 hrs by crystal violet staining based analysis relative to control. Type of assay: functional. The following applies: dose 31.25 µg/ml.
In assay [5] the test system is Staphylococcus aureus. The assay can be described thus: Antibiofilm activity against methicillin-resistant Staphylococcus aureus ATCC 6538 at 100 ug/ml incubated for 24 hrs by crystal violet staining based microplate reader method relative to control. Type of assay: functional. Conditions: dose 100 µg/ml.
In assay [6] the test system is Streptococcus mutans. The experiment in a line: Antibiofilm activity against Streptococcus mutans UA159 assessed as inhibition of biofilm formation. Type of assay: functional, organism-based.
Assay [7] concerns Staphylococcus epidermidis. The assay can be described thus: Antibiofilm activity against […] incubated for 24 hrs. Type of assay: functional.
The test system of assay [8] is Staphylococcus aureus. The assay can be described thus: Antibiofilm activity against Staphylococcus aureus ATCC 25923 after 24 hrs by crystal violet staining based assay. The following applies: ATCC 25923, 24 h. Type of assay: functional, organism-based.
Assay [9] deals with Staphylococcus aureus. The experiment in a line: Antibiofilm activity against Staphylococcus aureus ATCC 6538 after 24 hrs by crystal violet staining based assay. Type of assay: functional, organism-based. The following applies: ATCC 6538, 24 h.
Assay [10] has as its system Staphylococcus aureus. The assay can be described thus: Antibiofilm activity against methicillin-resistant Staphylococcus aureus CH 10850 at 100 ug/ml relative to control. Type of assay: functional. The following applies: dose 100 µg/ml.
Assay [11] concerns Streptococcus mutans. The experiment in a line: Antibiofilm activity against clinical isolate Streptococcus mutans 2.M7/4 assessed as inhibition of biofilm formation at 31.0 ug/ml relative to control. Type of assay: functional. Also noted: scale not given: the % may be the effect or the level left. The following applies: dose 31 µg/ml.
The subject of assay [12] is Streptococcus mutans. The assay can be described thus: Antibiofilm activity against Streptococcus mutans UA159 assessed as inhibition of biofilm formation at 31.0 ug/ml relative to control. Type of assay: functional. Also noted: scale not given: the % may be the effect or the level left. Conditions: dose 31 µg/ml.
Assay [13] has as its system Staphylococcus aureus. The assay can be described thus: Antibiofilm activity against Staphylococcus aureus ATCC 6538 assessed as reduction in biofilm formation at 50 ug/ml measured after 24 hrs by crystal violet staining based analysis relative to control. Also noted: scale not given: the % may be the effect or the level left. Type of assay: functional. The following applies: dose 50 µg/ml.

The test system of assay [14] is Staphylococcus epidermidis. The experiment in a line: Antibiofilm activity against Staphylococcus epidermidis RP62A. Type of assay: functional.
In assay [15] the test system is Staphylococcus aureus. The assay can be described thus: Antibiofilm activity against methicillin-resistant Staphylococcus aureus CH 10850 at 32 ug/ml relative to control. Type of assay: functional. The following applies: dose 32 µg/ml.
The subject of assay [16] is Staphylococcus aureus. The experiment in a line: Antibiofilm activity against Staphylococcus aureus ATCC 6538 at 6.25 ug/ml relative to control. Type of assay: functional. Conditions: dose 6.25 µg/ml.
In another assay the test system is Candida albicans. The assay can be described thus: Antibiofilm activity against Candida albicans assessed as reduction in biofilm formation at 200 ug/ml measured after 48 hrs by crystal violet staining based analysis relative to control. Type of assay: functional. Conditions: dose 200 µg/ml. Also noted: scale not given: the % may be the effect or the level left.

In assay [17] the test system is Pseudomonas aeruginosa. The assay can be described thus: Antibiofilm activity against Pseudomonas aeruginosa ATCC 15442 after 24 hrs by crystal violet staining based assay. Type of assay: functional, organism-based. The following applies: ATCC 15442, 24 h.
The test system of assay [18] is Pseudomonas aeruginosa. The assay can be described thus: Antibiofilm activity against Pseudomonas aeruginosa PA01 at 128 ug/ml relative to control. Type of assay: functional. Conditions: dose 128 µg/ml.
Assay [19] relates to Staphylococcus aureus. The experiment in a line: Antibiofilm activity against Staphylococcus aureus ATCC 6538 at 100 ug/ml incubated for 24 hrs by crystal violet staining based microplate reader method relative to control. Type of assay: functional. Conditions: dose 100 µg/ml.

On to `O=C(NCCSSCCNC(=O)/C(Cc1cc(Br)c(O)c(-c2cc(C/C(=N\O)C(=O)NCCSSCCNC(=O)/C(Cc3ccc(O)c(Br)c3)=N/O)cc(Br)c2O)c1)=N\O)/C(Cc1ccc(O)c(Br)c1)=N\O`, for which the IC50 in assay [1] turned out to be 8.53 µM; in assay [2], 8.7 µM.

In the case of `C=C(C)C(=O)CC/C(C)=C\C[C@@]12OC(C)(C)[C@H](Cl)C=C1C(=O)c1c(O)cc(O)cc1C2=O`, the values for the Activity with Micrococcus luteus and in the assay with Marinobacter nauticus were 87.3% and 43.4%, respectively.

`COC(=O)[C@H](C)c1c([C@@]2(C)CCCC(C)(C)C2)ccc2c1[C@H](O)OC2=O` came in with an Activity in the assay with Staphylococcus aureus [3] of 97.8%.

In the case of `CC(C)=CCC/C(C)=C\C[C@@]12OC(C)(C)[C@H](Cl)C[C@]1(Cl)C(=O)c1c(O)cc(O)cc1C2=O`, the results for the Activity (in the assay on Micrococcus luteus; in [4]) were 88.6% and 87.2%, respectively.

With `CC(=O)O[C@@H]1C[C@@H]2C(CO)=C[C@]3(C=C(C)C[C@@H](/C=C(\C)CCC=C(C)C)O3)O[C@@H]2C=C1C`, in the assay on Staphylococcus aureus [5], the Activity was found to be 50%.

With `Cc1ccc(S(=O)(=O)n2cc3c4c2C(=O)C(NCc2ccc(Cl)cc2)=CC4=NCC3)cc1`, in the assay with Streptococcus mutans [6], the IC50 came out at 2.5 µM.

Compound `Cn1c(-c2nnc(-c3ccc(N)cc3)o2)cc(Br)c1Br` registered an MBIC in assay [7] of 3.125 µg/mL.

In the case of `COCCn1cc(-c2nc(-c3cn(C)c4ncccc34)cs2)c2cc(F)ccc21`, the IC50 in the assay on Staphylococcus aureus [8] was 0.4 µM; with Staphylococcus aureus [9], 51.6 µM.

Compound `C[C@H]1C(=O)O[C@@H]2OC[C@@H]3CCC([C@@]4(C)CCCC(C)(C)C4)=C1[C@@H]32` gave an Activity in the assay with Staphylococcus aureus [10] of 85.4%.

With `C=C(C)C(=O)CC/C(C)=C/C[C@@]12OC(C)(C)[C@H](Cl)C[C@]1(Cl)C(=O)c1c(O)cc(O)cc1C2=O`, the Activity was determined as 87.3% with Micrococcus luteus and 43.4% with Marinobacter nauticus.

For `C=C1CCC(Br)C(C)(C)C1C[C@@]12OC(C)(C)[C@H](Cl)C=C1C(=O)c1c(O)cc(O)cc1C2=O` (stereo partly drawn), the Activity in the assay with Micrococcus luteus was 100%; in [4] it was 26.2%; in the assay with Marinobacter nauticus, 59.3%.

For the compound `CCCCCCCCC[C@H](CC(=O)NCCCCN)N1CC(=O)N[C@@H](Cc2ccccc2)C1=O`, the Activity was 34.8% with Streptococcus mutans [11] and 90% with Streptococcus mutans [12].

`C=C1CCC(Cl)C(C)(C)C1C[C@@]12OC(C)(C)[C@H](Cl)C[C@]1(Cl)C(=O)c1c(cc(O)c(C)c1O)C2=O` (stereo partly drawn) yielded an Activity in the assay on Marinobacter nauticus of 48.2%.

For the compound `COc1cc(-c2ccccn2)nc(C#N)c1SC`, in the assay on Staphylococcus aureus [13], the Activity is greater than 50%.

`CCCCC/C=C/C(=O)CCCCCCCCCC(=O)O` gave an MBIC in assay [14] of 16 µg/mL.

In the case of `COc1ccc(CNC2=CC3=NCCc4cn(S(=O)(=O)c5ccc(C)cc5)c(c43)C2=O)cc1OC`, the IC50 in the assay with Streptococcus mutans [6] came out at 2.6 µM.

Turning to `NCC(c1c[nH]c2cc(F)ccc12)c1c[nH]c2cc(F)ccc12`, the Activity in the assay on Staphylococcus aureus [15] came out at 61%.

`CC(=O)O[C@@H]1O[C@H](OC(C)=O)[C@H]2C(=O)[C@@H]([C@@]3(C)CCCC(C)(C)C3)CC[C@@H]12` gave an Activity with Staphylococcus aureus [3] of 97.7%.

Compound `COC(=O)[C@@]12Oc3ccc(-c4ccc5c(c4O)C(=O)C4=C(O)C[C@H](C)[C@@H](O)[C@]4(C(=O)OC)O5)c(O)c3C(=O)C1=C(O)C[C@H](C)[C@H]2O` yielded an Activity with Staphylococcus aureus [16] of 97%.

As to `O=C(NCCSSCCNC(=O)/C(Cc1ccc(O)c(Br)c1)=N/O)/C(Cc1ccc(O)c(Br)c1)=N/O` [PSAMMAPLIN A], the IC50 in [1] is 30.7 µM; in assay [2], 2.64 µM.

Take `C/C=C/CCCC(C)/C(O)=C1\C(=O)[C@@H](C(C)O)N(C)C1=O` (stereo partly drawn): the Activity in the assay on Candida albicans came out at 80%.

Take `COc1ccc(CCNC2=CC3=NCCc4cn(S(=O)(=O)c5ccc(C)cc5)c(c43)C2=O)cc1`: the IC50 with Streptococcus mutans [6] was 2 µM.

`CCC1=C(C=O)[C@H](C(=O)OC)CC[C@@H]1[C@@]1(C)CCCC(C)(C)C1` displayed an Activity in the assay with Staphylococcus aureus [10] of 90.7%.

For `COc1cc(-c2ccccn2)nc(/C=N/O)c1[S+](C)[O-]` (stereo not drawn), the Activity in the assay on Staphylococcus aureus [13] is reported as greater than 80%.

Turning to `COCCn1cc(-c2nc(-c3cn(C)c4ncccc34)cs2)c2cc(Br)ccc21`, the IC50 in the assay with Staphylococcus aureus [8] amounted to 2.03 µM; in the assay with Staphylococcus aureus [9] it was 23.9 µM; with Pseudomonas aeruginosa [17] it was 9.7 µM.

As to `O=C1Nc2cc(Br)ccc2[C@@]1(c1c[nH]c2ccccc12)C1CNc2ccccc21` (stereo partly drawn), the Activity in the assay on Pseudomonas aeruginosa [18] came out at 41.76%.

As for `CC(C)=CCC/C(C)=C/[C@@H]1CC(C)=C[C@]2(C=C(CO)[C@H]3C[C@H](O)C(C)=C[C@H]3O2)O1`, the Activity in the assay on Staphylococcus aureus [19] is listed as greater than 95%.
